According to patent publication US9717790B2, “Sphingoglycolipid analogues” (Victoria Link Limited, priority 2013, dated 2017):
Entries after “also recorded” stand apart in the source; their conditions may differ.

Key:
human NKT cells = test: Proliferation of human NKT cells in PBMC culture; type: cell-based; conditions: PBMC from one donor, 7 days culture with IL-2
Procedure: Peripheral blood mononuclear cells from one donor are cultured for 7 days with different doses of the indicated compounds in the presence of IL-2, and then the percentages of NKT cells in the final cultures determined by flow cytometry with fluorescent α-GalCer-loaded CD1d tetramers and anti-CD3. Data are expressed as percentage of NKT cells (α-GalCer/CD1d tetramer and anti-CD3-binding cells) of total T cells (all anti-CD3-binding cells).
Peripheral blood is drawn into heparinized tubes, diluted 1:1 in PBS, and layered over a sodium diatrizoate and polysaccharide solution (Lymphoprep; Axis-Shield, Oslo, Norway) before centrifugation at 800×g for 25 minutes at room temperature to collect the peripheral blood mononuclear cell (PBMC) fraction, which contains NKT cells. To assess proliferation of NKT cells, PBMC (2×10^5 per well) are cultured at 37° C. in Iscove's Modified Dulbecco's Medium with 5% human AB serum and the indicated concentrations of α-GalCer, or CN161, with recombinant human IL-2 50 U/mL (Chiron Corporation, Emeryville, Calif.) added after 24 hours. After 7 days of culture, the cells are analysed by flow cytometry, using fluorescent soluble CD1d tetramers that have been loaded with α-GalCer to identify the NKT cells. […]

[1] = test system: C1498 acute leukemia cells; test: Analysis of anti-leukemia activity, C1498 challenge; type: in vivo, mice
Procedure: The prophylactic vaccines consist of irradiated C1498 cells that are incubated with compounds of the invention for 24 h. Control animals are injected with irradiated C1498 cells alone, compound alone, or left untreated. The time to onset of leukemia-associated symptoms are shown. (A) Analysis of vaccines incorporating CN161. (B) Analysis of vaccines incorporating α-GalCer.
To generate cell-based vaccines, C1498 acute leukemia cells are cultured for 24 h in complete IMDM supplemented with 200 ng/ml of α-GalCer or 200 ng/ml CN161, washed three times with PBS, and γ-irradiated (150 Gy). Vaccines comprising of 7.5×10^5 cells are administered intravenously via the lateral tail vein. Mice are monitored for onset of leukemia-associated symptoms, such as weight loss, hunching or reduced grooming. All experiments are conducted with five animals per treatment group, with controls including a leukemia-only group.

B16.OVA melanoma = test: Analysis of anti-tumour activity, B16.OVA melanoma challenge; type: in vivo, C57BL/6 mice
Procedure: Groups of C57BL/6 mice (n=5) are injected with 1×10^5 live B16.OVA tumour cells subcutaneously on day 0. On day 6 0.23 nmol of the indicated compounds (α-GalCer or CN161) mixed with OVA protein (200 μg) are administered intraveneously. The tumour size is monitored regularly with calipers until the first animal in each group reached 200 mm^2, at which point the whole group is culled.
Control animals are injected with the long peptide alone, α-GalCer alone, or left untreated. The mean tumour sizes per group (n=5)±SEM are shown.
Groups of C57BL/6 mice (n=5) receive a subcutaneous injection into the flank of 1×10^5 B16.OVA melanoma cells, which express a cDNA encoding the chicken ovalbumin (OVA) sequence. The different groups are treated 7 days later, when tumours are fully engrafted, by intravenous injection of one of the following; vaccines as indicated in text and figure legends. Mice are monitored for tumour growth every 3-4 days, and tumour size for each group is calculated as the mean of the products of bisecting diameters (+SEM). Measurements are terminated for each group when the first animal develops a tumour exceeding […].

SVYDFFVWL-loaded targets = test: In vivo cytotoxic capacity of TRP-2 specific T cells after vaccination; conditions: 0.23 nmol compound with long TRP-2 peptide (0.57 nmol) intravenously; targets injected 7 days after vaccination
Procedure: Control animals are injected with the long peptide alone, or α-GalCer alone. […] To discriminate the targets from host tissue, the injected cells are labelled with the fluorescent dye carboxyfluorescein succinimidyl ester (CFSE). A cohort of syngeneic splenocytes (without peptide) labelled with the fluorescent dye cell tracker orange are also injected to serve as controls. Killing is defined as the percentage of peptide-loaded targets killed relative to control cells. Each treatment group contained 5 animals with mean percentage of killing per group±SEM shown.

[2] = test system: cytokines IL-12p70, IL-4 and IFN-γ; test: Analysis of cytokine release into serum; type: in vivo, C57BL/6 mice; conditions: for ratio of cytokines IFN-γ/IL-4: 0.23 nmol intravenously, blood at 18 h (IFN-γ) and 3 h (IL-4), compared to α-GalCer
Procedure: Groups of C57BL/6 mice (n=3) are injected intravenously with 0.23 nmol of the indicated compounds.
Each compound of the invention is supplied as formulated product (see example 3), and diluted in water for delivery (0.23 nmol/mouse) by intravenous injection into the lateral tail vein. In humans the expected therapeutic dose lies in the 50-4800 (μg/m^2) range (Giaccone, Punt et al. 2002). Note, 0.23 nmol in a mouse is a human equivalent dose of 30 μg/m^2 for α-GalCer.
Blood is collected from the lateral tail vein at different time intervals after glycolipid administration. Serum is collected after blood has clotted, and levels of cytokines IL-12p70, IL-4 and IFN-γ are assessed by cytokine bead array technology (Biolpex, Biorad), according to the manufacturer's instructions.

[3] = in vivo; cited from earlier work
[4] = cited from earlier work
[5] = cell-based vaccine: irradiated C1498 cells incubated with compound (200 ng/ml) for 24 h, intravenously

Row | Compound | proliferation of iNKT cells (percentage of NKT cells of total T cells) (human NKT cells) | anti-leukemia activity (time to onset of leukemia-associated symptoms) [1, 5] | anti-leukemia activity (time to onset of leukemia-associated symptoms) ([1]; compound injected alone) | antitumour activity against B16.OVA melanoma (tumour growth) (B16.OVA melanoma; 0.23 nmol compound with long TRP2 peptide (0.57 nmol) intravenously) | antitumour activity against B16.OVA melanoma (B16.OVA melanoma; compound with long OVA peptide KISQAVHAAHAEINEAGRESIINFEKLTEWT intravenously) | vaccine adjuvant activity, progression of B16.OVA melanoma (B16.OVA melanoma; therapeutic challenge, 0.23 nmol compound mixed with OVA protein (200 μg) intravenously) | cytotoxic response (killing of peptide-loaded targets) (SVYDFFVWL-loaded targets) | ratio of cytokines IFN-γ/IL-4 [2] | efficacy in human clinical trials [3] | time of peak IFN-γ level in the serum ([2]; after injection) | time of peak IL-12p70 level in the serum ([2]; after injection) | time of peak production of IL-4 in the serum ([2]; after injection) | solubility [4]
1 | CCCCCCCCCCCCCCCCCCCCCCCCCC(=O)N[C@@H](C[C@]1(O)O[C@H](CSSC[C@H]2O[C@@](O)(C[C@H](NC(=O)CCCCCCCCCCCCCCCCCCCCCCCCC)[C@H](O)[C@H](O)CCCCCCCCCCCCCC)[C@H](O)[C@@H](O)[C@H]2O)[C@H](O)[C@H](O)[C@H]1O)[C@H](O)[C@H](O)CCCCCCCCCCCCCC [CN161, 6,6′-Disulfanediylbis[6-deoxy-1-((2S,3S,4R)-3,4-dihydroxy-2-(hexacosanoylamino)octadecyl)-α-D-galactopyranose]] | able to induce the proliferation of iNKT cells | anti-leukemia activity; also recorded: significant protection | anti-leukemia activity; also recorded: can provide protection | delayed tumour growth; also recorded: anti-tumour activity | equivalent anti-tumour activity | potent vaccine adjuvant activity | potent antigen-specific cytotoxicity; also recorded: greater cytotoxic response | higher ratio of IFN-γ/IL-4 | – | – | – | – | –
2 | CCCCCCCCCCCCCCCCCCCCCCCCCC(=O)N[C@@H](CO[C@H]1O[C@H](CO)[C@H](O)[C@H](O)[C@H]1O)[C@H](O)[C@H](O)CCCCCCCCCCCCCC [α-GalCer, α-Galactosylceramide] | – | significant protection | not active and not | – | – | – | – | – | lack of efficacy | > 12 h | 6 h | 2 to 3 h | poor solubility
3 | CCCCCCCCCCCCCCCCCCCCCCCCCC(=O)N[C@@H](CO[C@H]1O[C@@H]2CO[C@@H]2[C@H](O)[C@H]1O)[C@H](O)[C@H](O)CCCCCCCCCCCCCC [CN154, (2S,3S,4R)-1-(4,6-Anhydro-α-D-galactopyranosyloxy)-2-hexacosanoylamino-3,4-octadecandiol] | – | – | – | – | – | – | – | higher ratio of IFN-γ/IL-4 | – | – | – | – | –
